In article PMC10460389, “Design of 8-mer peptides that block Clostridioides difficile toxin A in intestinal cells” (Communications Biology, 2023):

Tests used:
C. diff. infection = conditions: antibiotic treatment (metronidazole and vancomycin); cited from earlier work
Source text: Multiple therapeutic approaches have been developed to treat C. diff. infection. The standard practice is treatment with antibiotics (metronidazole and vancomycin), but in 20% of cases infection reoccurs. Exposure to these antibiotics alters the microbial community in the gut, facilitating colonization by C. diff[21].

TcdA GTD catalytic site = conditions: cited from earlier work
[1] = system: small intestinal (jejunum) cells exposed to TcdA; conditions: cited from earlier work
TcdA GTD = conditions: 0.5 μM UDP-Glucose-Fluorescein 15 min; vs no-TcdA-AF594 no-UDP-Glucose-Fluorescein control RP(-T -U) for SA1; two-tailed T-test
Protocol: For the bead-based assay, statistical analyses were performed using a two-tailed T-test in conjunction with the RP (-T) control. Significance was determined at p < 0.05. […] Approximately 40 beads were imaged for each sample, with images containing out-of-focus beads or bead aggregates being excluded. […] Each SPR sensor was used to run two samples across two separate channels, leading to a total of 14 measurements. However, one measurement was excluded due to the loss of a stable signal.

| Compound | cases in which infection reoccurs (C. diff. infection) [%] | ΔGbinding (TcdA GTD catalytic site) | neutralization of TcdA in jejunum / small intestinal cells [1] | change in green fluorescence from center to halo (TcdA binding) region (TcdA GTD) |
| --- | --- | --- | --- | --- |
| Cc1ncc([N+](=O)[O-])n1CCO [metronidazole] | 20 |  |  |  |
| CN[C@H](CC(C)C)C(=O)N[C@H]1C(=O)N[C@@H](CC(N)=O)C(=O)N[C@H]2C(=O)N[C@H]3C(=O)N[C@H](C(=O)N[C@H](C(=O)O)c4cc(O)cc(O)c4-c4cc3ccc4O)[C@H](O)c3ccc(c(Cl)c3)Oc3cc2cc(c3O[C@@H]2O[C@H](CO)[C@@H](O)[C@H](O)[C@H]2O[C@H]2C[C@](C)(N)[C@H](O)[C@H](C)O2)Oc2ccc(cc2Cl)[C@H]1O [vancomycin] | 20 |  |  |  |
| DGWIQHYKHR [NPC, computationally designed 10-mer peptide from previous work] |  | -6.15 | neutralized toxin A in jejunum cells |  |
| GMFWQHRRHD [NPB, computationally designed 10-mer peptide from previous work] |  | -11.35 | neutralized toxin A in jejunum cells |  |
| HEWGRRHN [SA7] |  |  |  | All peptides except SA7 showed a significant (p < 0.005) decrease in green fluorescence |
